Where a SMILES comes first, the peptide text is derived from it. Bridges are numbered along the chain shown (N, C = ends). [ ]: non-standard residue; d: D form. The star is where a group is joined. Bip = N[C@@H](Cc1ccc(-c2ccccc2)cc1)C(=O)O; Phe(3-Me) = Cc1cccc(C[C@H](N)C(=O)O)c1; Cha = N[C@@H](CC1CCCCC1)C(=O)O; Cit = NC(=O)NCCC[C@H](N)C(=O)O; Carboxymethyl = O=C(O)C*; Nle = CCCC[C@H](N)C(=O)O; Orn = NCCC[C@H](N)C(=O)O; Dab = NCC[C@H](N)C(=O)O; Dap = NC[C@H](N)C(=O)O
Each compound was assayed against T1, human PD-1 / PD-L1-Ig binding on Jurkat cell line over-expressing human PD-1 (Jurkat-PD-1) (Homo sapiens, UniProt Q15116) (assay: Jurkat-PD-1 Cell Binding High-Content Screening Assay (CBA)). Settings: Jurkat-PD-1 cells, PE-labeled PD-L1-Ig 20 nM final; read-out: Jurkat HPD1_PDL1 IC50.
T1 construct: expressed in transfected cells; host or cells: Jurkat
T1 sequence (Q15116 25-288): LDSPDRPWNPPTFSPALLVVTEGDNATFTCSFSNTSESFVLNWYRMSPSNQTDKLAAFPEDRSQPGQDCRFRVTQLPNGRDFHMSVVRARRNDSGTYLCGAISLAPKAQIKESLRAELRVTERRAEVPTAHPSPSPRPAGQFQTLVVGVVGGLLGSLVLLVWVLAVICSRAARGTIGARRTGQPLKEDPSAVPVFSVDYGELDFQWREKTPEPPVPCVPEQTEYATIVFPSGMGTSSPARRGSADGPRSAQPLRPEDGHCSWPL
Assay type: cell-based
Method in brief: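 Compounds were preincubated with Jurkat-hPD-1 cells in DMEM plus 10% fetal calf serum for 2 h at 37° C. Phycoerythrin-labeled PD-L1-Ig (20 nM final) was then added for 1 hour. Cells were fixed in 4% paraformaldehyde with Hoechst 33342, and bound fluorescence was quantified by high-content imaging.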

Going from Cc1cccc(C[C@@H]2NC(=O)[C@H](CC(=O)O)NC(=O)[C@H](Cc3ccc(OCC(=O)O)cc3)NC(=O)[C@H](CN)NC(=O)CSC[C@@H](C(=O)N[C@@H](C)C(N)=O)NC(=O)[C@H]([C@@H](C)O)NC(=O)[C@H](C(C)C)NC(=O)[C@H](CC3CCCCC3)NC(=O)[C@H](CCN)NC(=O)[C@@H](CC(C)C)NC(=O)[C@H](CCCN)NC(=O)[C@H](CCC(=O)O)NC(=O)[C@H](Cc3ccc(-c4ccccc4)cc3)NC(=O)[C@H](C(C)C)NC2=O)c1 [Compound 1302] to Cc1cccc(C[C@@H]2NC(=O)[C@H](CC(=O)O)NC(=O)[C@H](Cc3ccc(OCC(=O)O)cc3)NC(=O)[C@H](CN)NC(=O)CSC[C@@H](C(=O)N[C@@H](C)C(N)=O)NC(=O)[C@H]([C@@H](C)O)NC(=O)[C@H](C(C)C)NC(=O)[C@H](CC3CCCCC3)NC(=O)[C@H](CCN)NC(=O)[C@@H](CC(C)C)NC(=O)[C@H](CCCN)NC(=O)[C@H](CCN)NC(=O)[C@H](Cc3ccc(-c4ccccc4)cc3)NC(=O)[C@H](C(C)C)NC2=O)c1 [Compound 1309] ({CH2CO}-[Dap]Y(Carboxymethyl)D[Phe(3-Me)]V[Bip][Dab][Orn][dL][Dab][Cha]VTCA-NH2; thioether N-14), the IC50 rises from 6.1 nM to 48.4 nM (7.9-fold). The first is the more potent here.

First: Cc1cccc(C[C@@H]2NC(=O)[C@H](CC(=O)O)NC(=O)[C@H](Cc3ccc(OCC(=O)O)cc3)NC(=O)[C@H](CN)NC(=O)CSC[C@@H](C(=O)N[C@@H](C)C(N)=O)NC(=O)[C@H]([C@@H](C)O)NC(=O)[C@H](C(C)C)NC(=O)[C@H](CC3CCCCC3)NC(=O)[C@H](CCN)NC(=O)[C@@H](CC(C)C)NC(=O)[C@H](CCCN)NC(=O)[C@H](C(C)C)NC(=O)[C@H](Cc3ccc(-c4ccccc4)cc3)NC(=O)[C@H](CC(C)C)NC2=O)c1 [Compound 1303] ({CH2CO}-[Dap]Y(Carboxymethyl)D[Phe(3-Me)]L[Bip]V[Orn][dL][Dab][Cha]VTCA-NH2; thioether N-14)
Second: Cc1cccc(C[C@@H]2NC(=O)[C@H](CC(=O)O)NC(=O)[C@H](Cc3ccc(OCC(=O)O)cc3)NC(=O)[C@H](CN)NC(=O)CSC[C@@H](C(=O)N[C@@H](C)C(N)=O)NC(=O)[C@H]([C@@H](C)O)NC(=O)[C@H](C(C)C)NC(=O)[C@H](CC3CCCCC3)NC(=O)[C@H](CCN)NC(=O)[C@@H](CC(C)C)NC(=O)[C@H](CCCN)NC(=O)[C@H](CN)NC(=O)[C@H](Cc3ccc(-c4ccccc4)cc3)NC(=O)[C@H](C(C)C)NC2=O)c1 [Compound 1310] ({CH2CO}-[Dap]Y(Carboxymethyl)D[Phe(3-Me)]V[Bip][Dap][Orn][dL][Dab][Cha]VTCA-NH2; thioether N-14)
The IC50 of the first is 2.5-fold lower: 4.8 nM for the first, 12 nM for the second.

Going from CC(C)C[C@@H]1NC(=O)[C@H](Cc2c[nH]c3ccccc23)NC(=O)[C@H](CC(=O)O)NC(=O)[C@H](Cc2ccc(OCC(=O)O)cc2)NC(=O)[C@H](CN)NC(=O)CSC[C@@H](C(=O)N[C@@H](C)C(N)=O)NC(=O)[C@H]([C@@H](C)O)NC(=O)[C@H](C(C)C)NC(=O)[C@H](CC(C)C)NC(=O)[C@H](CCN)NC(=O)[C@@H](CC(C)C)NC(=O)[C@H](CCCN)NC(=O)[C@H](CCCNC(N)=O)NC(=O)[C@H](Cc2ccc(-c3ccccc3)cc2)NC1=O [Compound 1304] ({CH2CO}-[Dap]Y(Carboxymethyl)DWL[Bip][Cit][Orn][dL][Dab]LVTCA-NH2; thioether N-14) to CC(C)C[C@@H]1NC(=O)[C@H](Cc2c[nH]c3ccccc23)NC(=O)[C@H](CC(=O)O)NC(=O)[C@H](Cc2ccc(OCC(=O)O)cc2)NC(=O)[C@H](CN)NC(=O)CSC[C@@H](C(=O)N[C@@H](C)C(N)=O)NC(=O)[C@H]([C@@H](C)O)NC(=O)[C@H](C(C)C)NC(=O)[C@H](CC(C)C)NC(=O)[C@H](CCN)NC(=O)[C@@H](CC(C)C)NC(=O)[C@H](CCCN)NC(=O)[C@H](C(C)C)NC(=O)[C@H](Cc2ccc(-c3ccccc3)cc2)NC1=O [Compound 1313] ({CH2CO}-[Dap]Y(Carboxymethyl)DWL[Bip]V[Orn][dL][Dab]LVTCA-NH2; thioether N-14), the IC50 falls from 26.5 nM to 15.7 nM (1.7-fold).

Going from Cc1cccc(C[C@@H]2NC(=O)[C@H](CC(=O)O)NC(=O)[C@H](Cc3ccc(O)cc3)NC(=O)[C@H](CC(N)=O)NC(=O)CSC[C@@H](C(=O)N[C@@H](C)C(N)=O)NC(=O)[C@H]([C@@H](C)O)NC(=O)[C@H](C(C)C)NC(=O)[C@H](CC(C)C)NC(=O)[C@H](CCN)NC(=O)[C@@H](CC(C)C)NC(=O)[C@H](CCCN)NC(=O)[C@H](CCCNC(N)=O)NC(=O)[C@H](Cc3ccc(-c4ccccc4)cc3)NC(=O)[C@H](CC(C)C)NC2=O)c1 [Compound 1305] ({CH2CO}-NYD[Phe(3-Me)]L[Bip][Cit][Orn][dL][Dab]LVTCA-NH2; thioether N-14) to CCCC[C@@H]1NC(=O)[C@H](CCN)NC(=O)[C@@H](CC(C)C)NC(=O)[C@H](CCCN)NC(=O)[C@H](CCCNC(N)=O)NC(=O)[C@H](Cc2ccc(-c3ccccc3)cc2)NC(=O)[C@H](CC(C)C)NC(=O)[C@H](Cc2cccc(C)c2)NC(=O)[C@H](CC(=O)O)NC(=O)[C@H](Cc2ccc(O)cc2)NC(=O)[C@H](CC(N)=O)NC(=O)CSC[C@@H](C(=O)N[C@@H](C)C(N)=O)NC(=O)[C@H]([C@@H](C)O)NC(=O)[C@H](C(C)C)NC1=O [Compound 1307] ({CH2CO}-NYD[Phe(3-Me)]L[Bip][Cit][Orn][dL][Dab][Nle]VTCA-NH2; thioether N-14), the IC50 rises from 11.7 nM to 37.4 nM (3.2-fold). The first is the more potent here.

Cc1cccc(C[C@@H]2NC(=O)[C@H](CC(=O)O)NC(=O)[C@H](Cc3ccc(O)cc3)NC(=O)[C@H](CC(N)=O)NC(=O)CSC[C@@H](C(=O)N[C@@H](C)C(N)=O)NC(=O)[C@H]([C@@H](C)O)NC(=O)[C@H](C(C)C)NC(=O)[C@H](CC3CCCCC3)NC(=O)[C@H](CCN)NC(=O)[C@@H](CC(C)C)NC(=O)[C@H](CCCN)NC(=O)[C@H](CCCNC(N)=O)NC(=O)[C@H](Cc3ccc(-c4ccccc4)cc3)NC(=O)[C@H](CC(C)C)NC2=O)c1 [Compound 1306] ({CH2CO}-NYD[Phe(3-Me)]L[Bip][Cit][Orn][dL][Dab][Cha]VTCA-NH2; thioether N-14) and Cc1cccc(C[C@@H]2NC(=O)[C@H](CC(=O)O)NC(=O)[C@H](Cc3ccc(OCC(=O)O)cc3)NC(=O)[C@H](CN)NC(=O)CSC[C@@H](C(=O)N[C@@H](C)C(N)=O)NC(=O)[C@H]([C@@H](C)O)NC(=O)[C@H](C(C)C)NC(=O)[C@H](CC3CCCCC3)NC(=O)[C@H](CCN)NC(=O)[C@@H](CC(C)C)NC(=O)[C@H](CCCN)NC(=O)[C@H](CCCN)NC(=O)[C@H](Cc3ccc(-c4ccccc4)cc3)NC(=O)[C@H](C(C)C)NC2=O)c1 [Compound 1311] ({CH2CO}-[Dap]Y(Carboxymethyl)D[Phe(3-Me)]V[Bip][Orn][Orn][dL][Dab][Cha]VTCA-NH2; thioether N-14) are within 1.5-fold of each other in IC50: 14.6 nM for the first, 16 nM for the second.

CC(C)C[C@H]1NC(=O)[C@H](CCCN)NC(=O)[C@H](CCCNC(N)=O)NC(=O)[C@H](Cc2ccc(-c3ccccc3)cc2)NC(=O)[C@H](C(C)C)NC(=O)[C@H](Cc2c[nH]c3ccccc23)NC(=O)[C@H](CC(=O)O)NC(=O)[C@H](Cc2ccc(OCC(=O)O)cc2)NC(=O)[C@H](CN)NC(=O)CSC[C@@H](C(=O)N[C@@H](C)C(N)=O)NC(=O)[C@H]([C@@H](C)O)NC(=O)[C@H](C(C)C)NC(=O)[C@H](CC2CCCCC2)NC(=O)[C@H](CCN)NC1=O [Compound 1308] ({CH2CO}-[Dap]Y(Carboxymethyl)DWV[Bip][Cit][Orn][dL][Dab][Cha]VTCA-NH2; thioether N-14) and CC(C)C[C@H]1NC(=O)[C@H](CCCN)NC(=O)[C@H](CCCNC(N)=O)NC(=O)[C@H](Cc2ccc(-c3ccccc3)cc2)NC(=O)[C@H]([C@@H](C)O)NC(=O)[C@H](Cc2c[nH]c3ccccc23)NC(=O)[C@H](CC(=O)O)NC(=O)[C@H](Cc2ccc(OCC(=O)O)cc2)NC(=O)[C@H](CN)NC(=O)CSC[C@@H](C(=O)N[C@@H](C)C(N)=O)NC(=O)[C@H]([C@@H](C)O)NC(=O)[C@H](C(C)C)NC(=O)[C@H](CC2CCCCC2)NC(=O)[C@H](CCN)NC1=O [Compound 1315] ({CH2CO}-[Dap]Y(Carboxymethyl)DWT[Bip][Cit][Orn][dL][Dab][Cha]VTCA-NH2; thioether N-14) are within 1.5-fold of each other in IC50: 12.6 nM for the first, 18.6 nM for the second.

Going from CC(C)C[C@H]1NC(=O)[C@H](CCCN)NC(=O)[C@H](C(C)C)NC(=O)[C@H](Cc2ccc(-c3ccccc3)cc2)NC(=O)[C@H](C(C)C)NC(=O)[C@H](Cc2c[nH]c3ccccc23)NC(=O)[C@H](CC(=O)O)NC(=O)[C@H](Cc2ccc(OCC(=O)O)cc2)NC(=O)[C@H](CN)NC(=O)CSC[C@@H](C(=O)N[C@@H](C)C(N)=O)NC(=O)[C@H]([C@@H](C)O)NC(=O)[C@H](C(C)C)NC(=O)[C@H](CC2CCCCC2)NC(=O)[C@H](CCN)NC1=O [Compound 1312] ({CH2CO}-[Dap]Y(Carboxymethyl)DWV[Bip]V[Orn][dL][Dab][Cha]VTCA-NH2; thioether N-14) to CC[C@H](C)[C@@H]1NC(=O)[C@H](CC2CCCCC2)NC(=O)[C@H](CCN)NC(=O)[C@@H](CC(C)C)NC(=O)[C@H](CCCN)NC(=O)[C@H](CCCNC(N)=O)NC(=O)[C@H](Cc2ccc(-c3ccccc3)cc2)NC(=O)[C@H](C(C)C)NC(=O)[C@H](Cc2c[nH]c3ccccc23)NC(=O)[C@H](CC(=O)O)NC(=O)[C@H](Cc2ccc(OCC(=O)O)cc2)NC(=O)[C@H](CN)NC(=O)CSC[C@@H](C(=O)N[C@@H](C)C(N)=O)NC(=O)[C@H]([C@@H](C)O)NC1=O [Compound 1314] ({CH2CO}-[Dap]Y(Carboxymethyl)DWV[Bip][Cit][Orn][dL][Dab][Cha]ITCA-NH2; thioether N-14), the IC50 rises from 4 nM to 9 nM (2.2-fold). The first is the more potent here.

Work on CC[C@H](C)[C@@H]1NC(=O)[C@H](Cc2c[nH]c3ccccc23)NC(=O)[C@H](CC(=O)O)NC(=O)[C@H](Cc2ccc(OCC(=O)O)cc2)NC(=O)[C@H](CN)NC(=O)CSC[C@@H](C(=O)N[C@@H](C)C(N)=O)NC(=O)[C@H]([C@@H](C)O)NC(=O)[C@H](C(C)C)NC(=O)[C@H](CC2CCCCC2)NC(=O)[C@H](CCN)NC(=O)[C@@H](CC(C)C)NC(=O)[C@H](CCCN)NC(=O)[C@H](CCCNC(N)=O)NC(=O)[C@H](Cc2ccc(-c3ccccc3)cc2)NC1=O [Compound 1316] ({CH2CO}-[Dap]Y(Carboxymethyl)DWI[Bip][Cit][Orn][dL][Dab][Cha]VTCA-NH2; thioether N-14) yielded an IC50 of 9.1 nM.

From patent US20250163104A1, “MACROCYCLIC IMMUNOMODULATORS” (priority 2021, published 2025)
